Results on 17 compounds are retold here after patent EP0309765A2, “1(2H)-Phthalazinones as cytoprotective agents” (FISONS CORPORATION, priority 1987, dated 1989).

Structures are written as SMILES. Structures can show the parent of a compound that is named as a salt.

The test system of one experiment is Indomethacin-induced Gastric Lesions. As to the kind of experiment: Reversal of indomethacin-induced gastric lesions (number of macroscopically visible hemorrhagic lesions in the glandular stomach). It counts as in vivo, Male, Sprague-Dawley rats. The following applies: Rattus norvegicus, ip, 6 h; test compound 50 mg/kg intraperitoneal, 1 hour before 25 mg/kg oral indomethacin; lesions counted six hours after indomethacin; versus saline control group; read-out: Percent Inhibition. As to the method:
The methodology for determining the degree of inhibition of gastric lesion formation by the compounds of formula 1 is described below and the results, expressed as percent inhibition, are given in Table 1. Reversal of Indomethacin-induced Gastric Lesions Male, Sprague-Dawley rats weighing 200-225 grams were fasted 24 hours prior to the intraperitoneal administration of the test compounds. The standard screening dosed employed was either 100 or 50 mg/kg. One hour later, the rats were orally administered 25 mg/kg of indomethacin. Both indomethacin and the compounds were suspended in 1% Clearjel ("Instant Clearjel®", a food grade pregelatinized starch from National Starch and Chemical Corporation, New York, N.Y.) or .85% NaCl saline for dosing. Six hours after indomethacin administration, the animals were sacrificed, their stomachs removed, opened along the line of greater curvature, and rinsed with distilled water. The number of macroscopically visible hemmorhagic lesions (dark brown discolorations) in the glandular portion of the stomach was enumerated. […] [table]
Regarding `COc1ccc(/C=C\c2ccc3c(=O)n(CCCN(C)C)ncc3c2)cc1` [Example 10, CIs-6-[2-(4-methoxyphenyl)ethenyl]-2-[3-(dimethylamino)propyl]phthalazin-1(2H)-one cyclohexylsulfamate], the inhibition in vivo at 50 mg/kg was 61%.
On to `CN(C)CCCn1ncc2cc(/C=C/c3ccc(O)cc3)ccc2c1=O` [Example 14, Trans-6-[2-(4-hydroxyphenyl)ethenyl]-2-[3-(dimethylamino)-propyl]phthalazin-1(2H)-one hydrochloride], for which the inhibition in vivo at 50 mg/kg amounted to 96.3%.
As to `COc1ccc(/C=C/c2ccc3c(=O)n(CCCN4CCNCC4)ncc3c2)cc1` [Example 5, Trans-6-[2-(4-methoxyphenyl)ethenyl]-2-[3-(1-piperazino)-propyl]phthalazin-1(2H)-one], the inhibition in vivo at 50 mg/kg worked out at 89%.
On to `COc1ccc(/C=C/c2ccc3c(=O)n(CCCN)ncc3c2)cc1` [Example 8, Trans-6-[2-(4-methoxyphenyl)ethenyl]-2-(3-aminopropyl)-phthalazin-1(2H)-one hydrobromide], for which the inhibition in vivo at 50 mg/kg was found to be 96%.
Same read-out and setting: the result for `COc1ccc(/C=C/c2ccc3c(=O)n(CCCCN(C)C)ncc3c2)cc1` [Example 9, Trans-6-[2-(4-methoxyphenyl)ethenyl]-2-[4-(dimethylamino)-butyl]phthalazin-1(2H)-one hydrobromide] reads 85%; that for `CN(C)CCCn1ncc2cc(/C=C/c3ccccc3)ccc2c1=O` [Example 16, Trans-2-[3-(dimethylamino)propyl]-6-(2-phenylethenyl)-1(2H)-phthalazinone], 80%.
Turning to `CNCCCn1ncc2cc(/C=C/c3ccc(OC)cc3)ccc2c1=O` [Example 7, Trans-6-[2-(4-methoxyphenyl)ethenyl]-2-[3-(methylamino)-propyl]phthalazin-1(2H)-one hydrobromide], the inhibition in vivo at 50 mg/kg was found to be 79%.
As to `COc1ccc(/C=C/c2ccc3c(=O)n(CCN4CCOCC4)ncc3c2)cc1` [Example 4, Trans-6-[2-(4-methoxyphenyl)ethenyl]-2-(2-morpholinoethyl)-phthalazin-1(2H)-one hydrobromide], the inhibition in vivo at 50 mg/kg was determined as 7%.
Same read-out and setting: the result for `COc1ccc(/C=C/c2ccc3c(=O)n(CCCN(C)C)ncc3c2)cc1` [Example 13, Trans-6-[2-(4-methoxyphenyl)ethenyl]-2-[3-dimethylamino)-propyl]phthalazin-1(2H)-one hydrobromide] reads 99%; that for `COc1ccc(/C=C/c2ccc3c(=O)n(CCCN4CCCCC4)ncc3c2)cc1` [Example 2, Trans-6-[2-(4-methoxyphenyl)ethenyl]-2-(3-piperidinopropyl)-phthalazin-1(2H)-one hydrobromide], 91%.

The experiment is the same for the next values; noted with them: Rattus norvegicus, ip, 6 h; test compound 100 mg/kg intraperitoneal, 1 hour before 25 mg/kg oral indomethacin; lesions counted six hours after indomethacin; versus saline control group; read-out: Percent Inhibition.
Turning to `O=c1c2ccc(/C=C/c3ccccc3)cc2cnn1CCO` [Example 17, Trans-2-(2-hydroxyethyl)-6-(2-phenylethenyl)-1(2H)-phthalazinone], the inhibition in vivo at 100 mg/kg turned out to be 59%.
`COc1ccc(/C=C/c2ccc3c(=O)n(C4CCN(C)CC4)ncc3c2)cc1` [Example 6, Trans-6-[2-(4-methoxyphenyl)ethenyl]-2-(1-methyl-4-piperidinyl)phthalazin-1(2H)-one]: the inhibition in vivo at 100 mg/kg worked out at 63%.
The same measure, in the same setting: to `CN(C)CCn1ncc2cc(/C=C/c3ccc(O)cc3)ccc2c1=O` [Example 15, Trans-6-[2-(4-hydroxyphenyl)ethenyl]-2-[2-(dimethylamino)-ethyl]-1(2H)-phthalazinone hydrochloride] belongs 7.2%; to `O=c1[nH]ncc2cc(/C=C/c3ccc(O)cc3)ccc12` [Example 11, Trans-6-[2-(4-Hydroxyphenyl)ethenyl]-phthalazin-1(2H)-one], 45%.
`COc1ccc(/C=C/c2ccc3c(=O)n(CCN(C)C)ncc3c2)cc1` [Example 3, Trans-6-[2-(4-methoxyphenyl)ethenyl]-2-[2-(dimethylamino)-ethyl]phthalazin-1(2H)-one hydrobromide]: the inhibition in vivo at 100 mg/kg is 65%.
On the same count and under the same terms, to `O=c1[nH]ncc2cc(/C=C/c3ccccc3)ccc12` [Example 12, Trans-6-[2-phenylethenyl]phthalazin-1(2H)-one] belongs 43%; to `COc1ccc(/C=C/c2ccc3c(=O)n(CCN(C(C)C)C(C)C)ncc3c2)cc1` [Example 1, Trans-6-[2-(4-methoxyphenyl)ethenyl]-2-[2-(diisopropylamino)-ethyl]phthalazin-1(2H)-one hydrobromide], 92%.
